Experimental data as given in paper PMC6943732, “The Disulfide Stress Response and Protein S-thioallylation Caused by Allicin and Diallyl Polysulfanes in Bacillus subtilis as Revealed by Transcriptomics and Proteomics” (Antioxidants, 2019).

Assays:
Type in all cases: cell-based
TufA (EF-Tu) = biological target: T1, TufA (EF-Tu) (Bacillus subtilis, UniProt P33166); test: shotgun Orbitrap LC-MS/MS of S-thioallylated Cys peptides (+[…] Da); conditions: covalent, Cys83
T1 construct: gene tuf; native, in treated cells, shotgun proteomics of tryptic peptides
T1 sequence (P33166 2-396): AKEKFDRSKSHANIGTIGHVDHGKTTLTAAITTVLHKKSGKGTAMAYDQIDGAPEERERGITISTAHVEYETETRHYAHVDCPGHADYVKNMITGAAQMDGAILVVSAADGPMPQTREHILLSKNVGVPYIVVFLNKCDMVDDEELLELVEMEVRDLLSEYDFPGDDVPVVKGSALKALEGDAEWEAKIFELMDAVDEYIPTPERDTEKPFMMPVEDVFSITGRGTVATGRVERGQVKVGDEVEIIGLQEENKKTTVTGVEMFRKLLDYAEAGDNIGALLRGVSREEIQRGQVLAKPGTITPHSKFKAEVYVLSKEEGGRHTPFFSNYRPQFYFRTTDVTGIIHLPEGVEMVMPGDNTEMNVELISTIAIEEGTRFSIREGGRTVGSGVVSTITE

SerA = biological target: T2, SerA (Bacillus subtilis, UniProt P35136); test: as above; conditions: covalent, redox-sensitive Cys
T2 construct: native, in treated cells, shotgun proteomics of tryptic peptides
T2 sequence (P35136 1-525): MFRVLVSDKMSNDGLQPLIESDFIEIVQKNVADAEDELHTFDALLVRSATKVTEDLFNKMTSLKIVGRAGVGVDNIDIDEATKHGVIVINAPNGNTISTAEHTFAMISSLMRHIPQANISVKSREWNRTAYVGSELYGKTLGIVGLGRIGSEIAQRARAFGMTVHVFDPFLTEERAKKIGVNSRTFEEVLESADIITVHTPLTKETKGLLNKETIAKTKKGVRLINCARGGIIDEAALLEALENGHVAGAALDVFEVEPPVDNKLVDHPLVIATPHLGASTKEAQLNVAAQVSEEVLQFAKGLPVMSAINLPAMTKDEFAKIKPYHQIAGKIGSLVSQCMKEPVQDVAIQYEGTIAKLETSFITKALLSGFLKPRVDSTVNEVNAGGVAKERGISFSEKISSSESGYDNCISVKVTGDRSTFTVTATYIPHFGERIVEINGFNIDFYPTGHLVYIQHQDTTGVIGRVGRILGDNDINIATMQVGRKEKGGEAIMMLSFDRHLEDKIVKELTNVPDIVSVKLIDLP

CatR = biological target: T3, CatR (Bacillus subtilis, UniProt O32238); test: IP and Orbitrap LC-MS/MS of S-thioallylated Cys peptides (+[…] Da); conditions: covalent; allicin-treated cells; Cys7
T3 construct: gene yvaP; native, immunoprecipitated with polyclonal antibody from allicin-treated cells
T3 sequence (O32238 1-108): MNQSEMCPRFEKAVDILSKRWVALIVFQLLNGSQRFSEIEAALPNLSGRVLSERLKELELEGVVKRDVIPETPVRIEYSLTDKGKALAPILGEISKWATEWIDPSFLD

GlnA = biological target: T4, GlnA (Bacillus subtilis, UniProt P12425); test: shotgun Orbitrap LC-MS/MS of S-thioallylated Cys peptides (+[…] Da); conditions: covalent
T4 construct: native, in treated cells, shotgun proteomics of tryptic peptides
T4 sequence (P12425 2-444): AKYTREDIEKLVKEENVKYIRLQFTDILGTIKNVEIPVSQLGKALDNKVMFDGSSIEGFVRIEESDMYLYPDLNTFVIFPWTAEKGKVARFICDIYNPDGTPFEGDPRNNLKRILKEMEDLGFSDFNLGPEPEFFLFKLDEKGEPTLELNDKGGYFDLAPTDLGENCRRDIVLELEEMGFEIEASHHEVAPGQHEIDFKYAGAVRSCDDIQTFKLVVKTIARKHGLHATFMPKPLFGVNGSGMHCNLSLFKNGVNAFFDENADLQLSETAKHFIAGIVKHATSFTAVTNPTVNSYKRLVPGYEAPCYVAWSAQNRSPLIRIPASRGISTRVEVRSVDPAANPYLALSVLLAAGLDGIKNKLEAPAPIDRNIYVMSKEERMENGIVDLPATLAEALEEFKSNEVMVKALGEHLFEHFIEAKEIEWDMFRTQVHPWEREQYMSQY

MetE = biological target: T5, MetE (Bacillus subtilis, UniProt P80877); test: as above; conditions: covalent, Cys719/Cys730
T5 construct: native, in treated cells, shotgun proteomics of tryptic peptides
T5 sequence (P80877 2-762): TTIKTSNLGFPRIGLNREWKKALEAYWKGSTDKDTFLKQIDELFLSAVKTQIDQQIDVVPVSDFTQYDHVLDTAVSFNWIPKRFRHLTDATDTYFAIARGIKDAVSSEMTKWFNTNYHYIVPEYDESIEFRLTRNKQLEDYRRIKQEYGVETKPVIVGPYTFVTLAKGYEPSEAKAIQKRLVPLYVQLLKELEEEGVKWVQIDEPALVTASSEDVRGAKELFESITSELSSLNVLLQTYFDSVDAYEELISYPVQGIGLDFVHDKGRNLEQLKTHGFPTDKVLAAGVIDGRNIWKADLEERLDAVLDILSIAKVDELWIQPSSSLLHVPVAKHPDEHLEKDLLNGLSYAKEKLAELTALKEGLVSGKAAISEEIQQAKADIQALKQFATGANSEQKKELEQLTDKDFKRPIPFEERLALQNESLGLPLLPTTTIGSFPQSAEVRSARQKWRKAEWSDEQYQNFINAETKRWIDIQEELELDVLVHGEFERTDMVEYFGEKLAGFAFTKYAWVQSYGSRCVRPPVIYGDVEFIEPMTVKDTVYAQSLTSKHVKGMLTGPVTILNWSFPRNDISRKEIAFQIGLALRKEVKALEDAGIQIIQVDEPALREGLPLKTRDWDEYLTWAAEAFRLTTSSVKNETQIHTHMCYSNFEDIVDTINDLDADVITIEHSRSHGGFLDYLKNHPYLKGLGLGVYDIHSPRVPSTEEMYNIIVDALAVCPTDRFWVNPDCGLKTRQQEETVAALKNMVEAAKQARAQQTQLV

YodB = biological target: T6, YodB (Bacillus subtilis, UniProt O34844); test: IP and Orbitrap LC-MS/MS of S-thioallylated Cys peptides (+[…] Da); conditions: covalent; allicin-treated cells; Cys101 (Cys6 peptide not identified)
T6 construct: native, immunoprecipitated with polyclonal antibody from allicin-treated cells
T6 sequence (O34844 whole entry): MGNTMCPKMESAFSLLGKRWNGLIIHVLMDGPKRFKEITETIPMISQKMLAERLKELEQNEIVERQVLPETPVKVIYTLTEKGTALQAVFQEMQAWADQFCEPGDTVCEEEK

PpaC = biological target: T7, PpaC (Bacillus subtilis, UniProt P37487); test: shotgun Orbitrap LC-MS/MS of S-thioallylated Cys peptides (+[…] Da); conditions: covalent, active site Cys158
T7 construct: native, in treated cells, shotgun proteomics of tryptic peptides
T7 sequence (P37487 whole entry): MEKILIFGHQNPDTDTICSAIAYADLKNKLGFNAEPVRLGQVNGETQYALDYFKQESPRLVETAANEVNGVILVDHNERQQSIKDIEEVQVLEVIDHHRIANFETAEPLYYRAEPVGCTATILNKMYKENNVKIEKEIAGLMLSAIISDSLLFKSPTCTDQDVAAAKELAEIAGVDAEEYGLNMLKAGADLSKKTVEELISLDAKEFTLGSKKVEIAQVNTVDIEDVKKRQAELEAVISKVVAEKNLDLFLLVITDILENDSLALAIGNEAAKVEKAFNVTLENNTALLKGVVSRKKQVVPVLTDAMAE

OhrR-FLAG = biological target: T8, OhrR-FLAG (Bacillus subtilis, UniProt O34777); test: IP and Orbitrap LC-MS/MS of S-thioallylated Cys peptides (+[…] Da); conditions: covalent; cells treated with 90 µM allicin, 30 min; Cys15 (b28 names the redox-sensing residue Cys22)
T8 construct: FLAG-tagged, expressed in B. subtilis, immunoprecipitated from allicin-treated cells
T8 sequence (O34777 1-147): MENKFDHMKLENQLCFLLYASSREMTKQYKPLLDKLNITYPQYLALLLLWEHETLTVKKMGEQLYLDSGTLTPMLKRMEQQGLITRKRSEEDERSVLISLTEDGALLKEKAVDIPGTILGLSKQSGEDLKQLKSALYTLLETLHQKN

HypR = biological target: T9, HypR (Bacillus subtilis, UniProt P37486); test: as above; conditions: covalent; allicin-treated cells; Cys14
T9 construct: gene yybR; native, immunoprecipitated with polyclonal antibody from allicin-treated cells
T9 sequence (P37486 whole entry): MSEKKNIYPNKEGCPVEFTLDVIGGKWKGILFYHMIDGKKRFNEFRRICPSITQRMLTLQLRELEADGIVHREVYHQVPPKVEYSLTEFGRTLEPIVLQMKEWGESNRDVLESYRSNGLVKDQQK

GuaB = biological target: T10, GuaB (Bacillus subtilis, UniProt P21879); test: shotgun Orbitrap LC-MS/MS of S-thioallylated Cys peptides (+[…] Da); conditions: covalent, active site Cys308
T10 construct: native, in treated cells, shotgun proteomics of tryptic peptides
T10 sequence (P21879 whole entry): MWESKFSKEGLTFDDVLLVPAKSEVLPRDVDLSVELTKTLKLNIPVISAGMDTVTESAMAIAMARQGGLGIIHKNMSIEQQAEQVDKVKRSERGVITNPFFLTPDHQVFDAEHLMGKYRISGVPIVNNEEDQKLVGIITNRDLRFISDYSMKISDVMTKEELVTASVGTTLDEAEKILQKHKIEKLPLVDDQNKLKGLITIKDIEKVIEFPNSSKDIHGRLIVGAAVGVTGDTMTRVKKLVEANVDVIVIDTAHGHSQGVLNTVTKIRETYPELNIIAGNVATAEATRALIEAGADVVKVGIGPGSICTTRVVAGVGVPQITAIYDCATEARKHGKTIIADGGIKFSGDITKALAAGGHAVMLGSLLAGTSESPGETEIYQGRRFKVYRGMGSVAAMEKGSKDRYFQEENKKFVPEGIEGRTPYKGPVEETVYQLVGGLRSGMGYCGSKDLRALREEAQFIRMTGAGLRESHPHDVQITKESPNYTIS

YxjG = biological target: T11, YxjG (Bacillus subtilis, UniProt P42318); test: as above; conditions: covalent, redox-sensitive Cys
T11 construct: native, in treated cells, shotgun proteomics of tryptic peptides
T11 sequence (P42318 1-378): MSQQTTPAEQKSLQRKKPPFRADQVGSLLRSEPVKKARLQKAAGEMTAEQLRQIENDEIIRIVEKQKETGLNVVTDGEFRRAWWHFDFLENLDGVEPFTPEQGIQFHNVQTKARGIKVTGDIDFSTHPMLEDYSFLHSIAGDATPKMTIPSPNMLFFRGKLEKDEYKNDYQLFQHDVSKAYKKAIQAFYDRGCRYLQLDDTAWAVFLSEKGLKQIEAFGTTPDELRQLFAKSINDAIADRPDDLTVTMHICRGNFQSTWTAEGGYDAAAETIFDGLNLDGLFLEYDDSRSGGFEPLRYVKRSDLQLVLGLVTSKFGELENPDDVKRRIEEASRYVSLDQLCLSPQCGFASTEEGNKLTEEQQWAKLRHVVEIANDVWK

FusA (EF-G) = biological target: T12, FusA (EF-G) (Bacillus subtilis, UniProt P80868); test: as above; conditions: covalent, Cys239
T12 construct: native, in treated cells, shotgun proteomics of tryptic peptides
T12 sequence (P80868 2-692): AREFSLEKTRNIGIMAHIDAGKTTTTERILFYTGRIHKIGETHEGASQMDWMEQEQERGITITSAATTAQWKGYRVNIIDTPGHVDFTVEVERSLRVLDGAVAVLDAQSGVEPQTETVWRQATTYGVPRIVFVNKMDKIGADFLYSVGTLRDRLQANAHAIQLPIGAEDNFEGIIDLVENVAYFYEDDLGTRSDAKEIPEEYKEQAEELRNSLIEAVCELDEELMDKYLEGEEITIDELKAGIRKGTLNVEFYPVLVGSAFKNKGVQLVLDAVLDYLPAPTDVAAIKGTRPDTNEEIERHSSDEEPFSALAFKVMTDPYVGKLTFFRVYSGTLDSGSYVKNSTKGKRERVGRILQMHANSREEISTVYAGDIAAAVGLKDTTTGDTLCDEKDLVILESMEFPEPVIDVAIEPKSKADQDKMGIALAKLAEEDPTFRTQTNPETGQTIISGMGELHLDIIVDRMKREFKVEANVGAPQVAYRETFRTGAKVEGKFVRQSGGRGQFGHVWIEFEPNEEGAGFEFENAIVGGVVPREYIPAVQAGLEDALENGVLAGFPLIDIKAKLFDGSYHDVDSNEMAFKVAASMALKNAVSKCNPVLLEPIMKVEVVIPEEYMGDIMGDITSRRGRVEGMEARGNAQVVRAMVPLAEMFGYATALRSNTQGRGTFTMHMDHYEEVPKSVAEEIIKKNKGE

[1] = cells treated with 90 µM allicin, 30 min
[2] = cells treated with 92 µM DAS4, 30 min

SMILES	shotgun Orbitrap LC-MS/MS of S-thioallylated Cys peptides (+72 Da) (TufA (EF-Tu); [1])	shotgun Orbitrap LC-MS/MS of S-thioallylated Cys peptides (+72 Da) (SerA; [1])	IP and Orbitrap LC-MS/MS of S-thioallylated Cys peptides (+72 Da) (CatR)	shotgun Orbitrap LC-MS/MS of S-thioallylated Cys peptides (+72 Da) (GlnA; cells treated with 90 µM allicin, 30 min, conserved Cys)	shotgun Orbitrap LC-MS/MS of S-thioallylated Cys peptides (+72 Da) (MetE; [1])	IP and Orbitrap LC-MS/MS of S-thioallylated Cys peptides (+72 Da) (YodB)	shotgun Orbitrap LC-MS/MS of S-thioallylated Cys peptides (+72 Da) (PpaC; [1])	IP and Orbitrap LC-MS/MS of S-thioallylated Cys peptides (+72 Da) (OhrR-FLAG)	IP and Orbitrap LC-MS/MS of S-thioallylated Cys peptides (+72 Da) (HypR)	shotgun Orbitrap LC-MS/MS of S-thioallylated Cys peptides (+72 Da) (GuaB; [1])	shotgun Orbitrap LC-MS/MS of S-thioallylated Cys peptides (+72 Da) (YxjG; [1])	shotgun Orbitrap LC-MS/MS of S-thioallylated Cys peptides (+72 Da) (FusA (EF-G); [1])	shotgun Orbitrap LC-MS/MS of S-thioallylated Cys peptides (+72 Da) (TufA (EF-Tu); [2])	shotgun Orbitrap LC-MS/MS of S-thioallylated Cys peptides (+72 Da) (SerA; [2])	shotgun Orbitrap LC-MS/MS of S-thioallylated Cys peptides (+72 Da) (GlnA; [2])	shotgun Orbitrap LC-MS/MS of S-thioallylated Cys peptides (+72 Da) (MetE; [2])	shotgun Orbitrap LC-MS/MS of S-thioallylated Cys peptides (+72 Da) (PpaC; [2])	shotgun Orbitrap LC-MS/MS of S-thioallylated Cys peptides (+72 Da) (GuaB; [2])	shotgun Orbitrap LC-MS/MS of S-thioallylated Cys peptides (+72 Da) (YxjG; [2])	shotgun Orbitrap LC-MS/MS of S-thioallylated Cys peptides (+72 Da) (FusA (EF-G); [2])
C=CCS[S+]([O-])CC=C (centres unmarked) [allicin]	modified at their conserved Cys residues, e.g., Cys83 of TufA	SerA, and PpaC were modified at their redox-sensitive Cys residues by allicin and DAS4	modified by S-thioallylation for OhrR (Cys15), HypR (Cys14), and CatR (Cys7)	MetE, YxjG, MetI, AroA, ArgJ, CarB, GlnA	Cys239 of FusA, and Cys719/Cys730 of MetE	For the YodB-repressor, only Cys101 was S-thioallylated	pyrophosphatase PpaC were S-thioallylated by allicin and DAS4 in B. subtilis	modified by S-thioallylation for OhrR (Cys15), HypR (Cys14), and CatR (Cys7)	modified by S-thioallylation for OhrR (Cys15), HypR (Cys14), and CatR (Cys7)	GuaB and PpaC were S-thioallylated at their conserved redox-sensing active sites Cys308 and Cys158	TufA, MetE, YxjG, GuaB, SerA, and PpaC were modified at their redox-sensitive Cys residues	Cys83 of TufA, Cys239 of FusA	–	–	–	–	–	–	–	–
C=CCSSSSCC=C [DAS4]	–	–	–	–	–	–	–	–	–	–	–	–	modified at their conserved Cys residues, e.g., Cys83 of TufA	SerA, and PpaC were modified at their redox-sensitive Cys residues by allicin and DAS4	MetE, YxjG, MetI, AroA, ArgJ, CarB, GlnA	Cys239 of FusA, and Cys719/Cys730 of MetE	pyrophosphatase PpaC were S-thioallylated by allicin and DAS4 in B. subtilis	GuaB and PpaC were S-thioallylated at their conserved redox-sensing active sites Cys308 and Cys158	TufA, MetE, YxjG, GuaB, SerA, and PpaC were modified at their redox-sensitive Cys residues	Cys83 of TufA, Cys239 of FusA
